Measured values: patent publication US11564912B2, “Methods for treating irritable bowel syndrome (IBS)” (Salix Pharmaceuticals, Inc., priority 2008, dated 2023)

How the values were obtained:
[1] = tested on: patients with nonconstipation irritable bowel syndrome (non-C IBS); assay: Trial of rifaximin 550 mg TID for 14 days with 10-week follow-up (Example 5; Study 2 of Example 6); format: in vivo, human; conditions: for % with decrease in SF (stool frequency): Rifaximin 550 mg TID
Text: A measure of efficacy is based on subjects' answers to the Weekly Subject Global Assessment (SGA) questions over the 4 week study duration in relation to their IBS symptoms. […] Another measure of efficacy is based on subjects' answers to the Weekly Subject Global Assessment (SGA) question over the 4 week study duration in relation to their IBS symptom of bloating. The SGA question is asked weekly as follows: “In the past 7 days, have you had adequate relief of your IBS symptom of bloating?” (Yes/No). […] Other measures of efficacy include the changes in dIBS symptoms from baseline to each week of the 4 weeks in the study (e.g., abdominal pain and discomfort, bloating, number of stools per day, stool consistency, urgency with loose or watery stools).
The primary efficacy endpoint of the study was the proportion of subjects who achieve adequate relief of IBS symptoms for at least 2 weeks during 10 the first 4 weeks of the 10-week follow-up phase.
Two measures of efficacy were assessed.
Subjects were questioned on the relief of overall IBS symptoms and bloating. […] The analyses defined success as a “yes” response to questions regarding adequate relief.
Assessment (SGA) questions over the 4 week study duration in relation to their IBS symptoms. […] Another measure of efficacy is based on subjects' answers to the Weekly Subject Global Assessment (SGA) question over the 4 week study duration in relation to their IBS symptom of bloating. The SGA question is asked weekly as follows: “In the past 7 days, have you had adequate relief of your IBS symptom of bloating'?” (Yes/No).
All subpopulations in the study responded to therapy. Baseline severity was determined during screening for Abdominal Pain/Discomfort and Bloating, and the number, type (normal, hard, loose) and urgency of bowel movements. Duration of effect was assessed in a ten week follow-up period.
(§1) A measure of efficacy is based on subjects' answers to the Weekly Subject Global Assessment (SGA) questions over the study duration in relation to their IBS symptoms.

subjects with IBS [2] = assay: Combined analysis of the two studies of rifaximin 550 mg TID; format: in vivo, human
Text: as §1

[3] = tested on: species of Staphylococcus, Streptococcus, Enterococcus, and Enterobacteriaceae; conditions: cited from earlier work
subjects with IBS [4] = assay: Combined analysis of the two studies of rifaximin 550 mg TID; format: in vivo, human; remark: listed apart in the source
[5] = Rifaximin exposure in subjects having IBS; format: in vivo, human
[6] = Race: Non-White, Rifaximin 550 mg TID (N = 31)
[7] = Race: White, Rifaximin 550 mg TID (N = 280)
[8] = Rifaximin 550 mg TID (N = 315), weekly SGA, at least 2 of Weeks 3 through 6, LOCF
[9] = Study 2, at least 2 out of 4 weeks adequate relief during weeks 3 through 6 (weekly question)
[10] = Study 2, at least 2 weeks during PEP
[11] = at least 2 out of 4 weeks adequate relief during weeks 3 through 6 (weekly question)

Substance: (2S,16Z,18E,20S,21S,22R, 23R,24R,25S,26S,27S,28E)-5,6,21,23,25 Pentahydroxy-27-methoxy -2,4,11,16,20,22,24,26-octamethyl-2,7-(epoxypentadeca-(1,11,13)trienimino)benzofuro (4,5-e) pyrido(1,2,-a) benzimidazole-1,15(2H)-dione,25-acetate [Rifaximin]
- Adequate Relief of IBS symptom of Bloating: Success [1, 6]: 14 (45.2%) N (%)
- Adequate Relief of IBS symptoms: Failure [1, 6]: 16 (51.6%) N (%)
- Adequate Relief of IBS symptoms: Success [1, 6]: 15 (48.4%) N (%)
- Adequate Relief of IBS symptom of Bloating: Failure [1, 7]: 170 (60.7%) N (%)
- Adequate Relief of IBS symptom of Bloating: Success [1, 7]: 110 (39.3%) N (%)
- Adequate Relief of IBS symptoms: Failure [1, 7]: 171 (61.1%) N (%)
- Adequate Relief of IBS symptoms: Success [1, 7]: 109 (38.9%) N (%)
- Adequate Relief of IBS symptom of Bloating: Failure [1, 8]: 190 (60.3%) n (%)
- Adequate Relief of IBS symptom of Bloating: Success [1, 8]: 125 (39.7%) n (%)
- Adequate Relief of IBS symptoms: Failure [1, 8]: 190 (60.3%) n (%)
- Adequate Relief of IBS symptoms: Success [1, 8]: 125 (39.7%) n (%)
- Daily abdominal pain <2, responders ([1]; Study 2, <2 for at least 50% of days in a week for at least 2 weeks during PEP): 39%
- Global IBS symptoms, responders [1, 9]: 41%
- IBS symptom of Bloating, responders [1, 9]: 41%
- Abdominal Pain reduction of 2 point in mean, responders [1, 10]: 25%
- Abdominal Pain reduction of 2 point in median, responders [1, 10]: 41%
- Abdominal Pain reduction of 3 point in mean, responders [1, 10]: 6% vs 7%
- Abdominal Pain reduction of 3 point in median, responders [1, 10]: 21%
- Overall reduction of mean weekly abdominal pain by >=25%, responders [1, 10]: 58%
- Overall reduction of mean weekly abdominal pain by >=50%, responders [1, 10]: 35%
- Overall reduction of mean weekly abdominal pain by >=75%, responders [1, 10]: 14%
- Overall reduction of median weekly abdominal pain by >=25%, responders [1, 10]: 62%
- Overall reduction of median weekly abdominal pain by >=50%, responders [1, 10]: 44%
- Overall reduction of median weekly abdominal pain by >=75%, responders [1, 10]: 20%
- Abdominal pain reduction of 1 point in mean, responders ([1]; Study 2, weekly mean vs baseline for at least 2 weeks during PEP): 52%
- Abdominal pain reduction of 1 point in median, responders ([1]; Study 2, weekly median vs baseline for at least 2 weeks during PEP): 62%
- % with decrease in SF (stool frequency) ([1]; Week 1): 14.4%
- % with decrease in SF (stool frequency) ([1]; Week 2): 20.6%
- % with decrease in SF (stool frequency) ([1]; Week 3): 22.2%
- % with decrease in SF (stool frequency) ([1]; Week 4): 21.6%
- % with decrease in SF (stool frequency) ([1]; Week 5): 25.7%
- % with decrease in SF (stool frequency) ([1]; Week 6): 22.9%
- % with decrease in SF (stool frequency) ([1]; Week 7): 23.8%
- % with decrease in SF (stool frequency) ([1]; Week 8): 24.4%
- % with decrease in SF (stool frequency) ([1]; Week 9): 25.4%
- % with decrease in SF (stool frequency) ([1]; Week 10): 26.7%
- % with decrease in SF (stool frequency) ([1]; Week 11): 25.4%
- % with decrease in SF (stool frequency) ([1]; Week 12): 27.0%
- Abdominal Pain reduction of 2 point in mean, responders (subjects with IBS [2]; at least 2 weeks during PEP): 25%
- Overall reduction of mean weekly abdominal pain by >=25%, responders (subjects with IBS [2]; at least 2 weeks during PEP): 57%
- Overall reduction of mean weekly abdominal pain by >=50%, responders (subjects with IBS [2]; at least 2 weeks during PEP): 35%
- Overall reduction of mean weekly abdominal pain by >=75%, responders (subjects with IBS [2]; at least 2 weeks during PEP): 14%
- Overall reduction of median weekly abdominal pain by >=25%, responders (subjects with IBS [2]; at least 2 weeks during PEP): 62%
- Overall reduction of median weekly abdominal pain by >=50%, responders (subjects with IBS [2]; at least 2 weeks during PEP): 44%
- Overall reduction of median weekly abdominal pain by >=75%, responders (subjects with IBS [2]; at least 2 weeks during PEP): 21%
- Abdominal pain reduction of 1 point in mean, responders (subjects with IBS [2]; weekly mean vs baseline for at least 2 weeks during PEP): 52%
- In vitro antibacterial activity [3]: active
- Daily abdominal pain <2, responders (subjects with IBS [4]; <2 for at least 50% of days in a week for at least 2 weeks during PEP): 39%
- Global IBS symptoms, responders (subjects with IBS [4]; [11]): 41%
- IBS symptom of Bloating, responders (subjects with IBS [4]; [11]): 40%
- Abdominal Pain reduction of 2 point in median, responders (subjects with IBS [4]; at least 2 weeks during PEP): 39%
- Abdominal Pain reduction of 3 point in mean, responders (subjects with IBS [4]; at least 2 weeks during PEP): 6% vs 7%
- Abdominal Pain reduction of 3 point in median, responders (subjects with IBS [4]; at least 2 weeks during PEP): 21%
- Abdominal pain reduction of 1 point in median, responders (subjects with IBS [4]; weekly median vs baseline for at least 2 weeks during PEP): 63%
- Rifaximin exposure, fold lower than neomycin exposure [5]: more than 66 fold
- Rifaximin exposure, fold lower than rifampin exposure [5]: more than 520 fold
